This note sets out measurements from PMC3078184 (Cancer research, 2011).

One experiment has as its target ABCB1 (Homo sapiens, UniProt P08183). Description: vanadate-sensitive ATPase stimulation in membrane vesicles. Type of experiment: biochemical.
A further experiment has as its target T1, ABCG2 (Homo sapiens, UniProt Q9UNQ0).
T1 sequence (Q9UNQ0 1-655): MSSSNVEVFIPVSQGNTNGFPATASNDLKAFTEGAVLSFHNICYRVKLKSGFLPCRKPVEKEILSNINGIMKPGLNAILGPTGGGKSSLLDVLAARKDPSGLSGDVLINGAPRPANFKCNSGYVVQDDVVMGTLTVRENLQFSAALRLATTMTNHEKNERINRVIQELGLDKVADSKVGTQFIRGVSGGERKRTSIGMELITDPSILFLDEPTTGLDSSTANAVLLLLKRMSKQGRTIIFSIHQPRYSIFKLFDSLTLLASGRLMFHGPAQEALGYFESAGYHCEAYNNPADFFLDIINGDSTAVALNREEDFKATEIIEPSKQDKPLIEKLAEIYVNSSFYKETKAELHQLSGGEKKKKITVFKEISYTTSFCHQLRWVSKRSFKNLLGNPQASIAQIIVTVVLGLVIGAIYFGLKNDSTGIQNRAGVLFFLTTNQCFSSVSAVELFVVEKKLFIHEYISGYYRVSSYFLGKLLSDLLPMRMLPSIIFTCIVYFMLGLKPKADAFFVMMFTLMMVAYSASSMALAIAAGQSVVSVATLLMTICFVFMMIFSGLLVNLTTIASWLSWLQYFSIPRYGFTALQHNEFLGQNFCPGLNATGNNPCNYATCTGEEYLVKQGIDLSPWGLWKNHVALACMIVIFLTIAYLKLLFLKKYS
The description is as above. Type of experiment: biochemical.

The structures appear in SMILES notation.

Chain of ABCB1 (P08183 whole entry): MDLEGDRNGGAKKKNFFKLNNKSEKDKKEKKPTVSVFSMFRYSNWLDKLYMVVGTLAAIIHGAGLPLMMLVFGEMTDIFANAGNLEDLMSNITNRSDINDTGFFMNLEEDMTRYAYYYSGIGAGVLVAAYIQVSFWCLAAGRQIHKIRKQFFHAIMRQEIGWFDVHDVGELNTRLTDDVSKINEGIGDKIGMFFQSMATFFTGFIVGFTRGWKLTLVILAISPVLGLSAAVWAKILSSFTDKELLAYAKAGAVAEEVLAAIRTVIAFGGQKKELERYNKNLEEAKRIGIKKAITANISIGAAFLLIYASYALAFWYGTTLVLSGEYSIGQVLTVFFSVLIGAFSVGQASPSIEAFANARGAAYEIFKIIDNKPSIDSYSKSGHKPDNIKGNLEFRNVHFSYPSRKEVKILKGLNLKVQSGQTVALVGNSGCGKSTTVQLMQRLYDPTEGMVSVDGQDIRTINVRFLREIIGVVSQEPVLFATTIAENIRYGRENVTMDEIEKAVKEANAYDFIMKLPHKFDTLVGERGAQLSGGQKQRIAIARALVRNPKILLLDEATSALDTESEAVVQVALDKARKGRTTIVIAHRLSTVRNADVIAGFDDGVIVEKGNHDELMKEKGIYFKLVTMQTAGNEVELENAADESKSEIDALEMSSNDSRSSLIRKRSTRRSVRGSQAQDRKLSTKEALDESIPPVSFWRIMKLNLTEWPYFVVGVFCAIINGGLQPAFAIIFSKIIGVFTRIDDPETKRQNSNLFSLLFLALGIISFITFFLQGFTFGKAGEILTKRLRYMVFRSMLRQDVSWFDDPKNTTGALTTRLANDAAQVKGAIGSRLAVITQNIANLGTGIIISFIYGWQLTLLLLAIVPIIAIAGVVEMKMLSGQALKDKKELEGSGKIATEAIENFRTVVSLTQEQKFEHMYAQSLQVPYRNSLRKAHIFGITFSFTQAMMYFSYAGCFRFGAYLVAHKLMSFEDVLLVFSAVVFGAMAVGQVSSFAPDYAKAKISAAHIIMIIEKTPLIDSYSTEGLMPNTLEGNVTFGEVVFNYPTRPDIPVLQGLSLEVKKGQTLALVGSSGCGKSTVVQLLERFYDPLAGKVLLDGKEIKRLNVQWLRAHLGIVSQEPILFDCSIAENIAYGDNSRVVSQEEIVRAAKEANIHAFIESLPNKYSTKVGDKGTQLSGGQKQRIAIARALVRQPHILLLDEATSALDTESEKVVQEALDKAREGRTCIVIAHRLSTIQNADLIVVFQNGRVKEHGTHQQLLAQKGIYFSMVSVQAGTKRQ

In the case of `CCCc1nn(C)c2c(=O)[nH]c(-c3cc(S(=O)(=O)N4CCN(C)CC4)ccc3OCC)nc12` [Sildenafil], the results for the EC50 on ABCB1 and at ABCG2 were 5000 to 10000 nM and 250 to 500 nM, respectively.
